Consider five molecules from paper PMC8544245 (Journal of medicinal chemistry, 2020).

“And” between values parts separate entries of the source, which are not always exact repeats. Equal values may be shown once. Read-outs that look alike come from different tables or passages of the source. Non-standard residues stand in square brackets, D forms with d. Residues, ends and D or L forms follow the SMILES beside them. *: point of attachment. d(hPhe) = N[C@H](CCc1ccccc1)C(=O)O; Bn = c1ccc(C*)cc1; NHOH = ON*

Series [1] addresses T1, MMP-3 (Homo sapiens, UniProt P08254). Nature of the series: SensoLyte 520 Fluorimetric Assay Kit selectivity assay, MMP-3. Conditions: agents tested at 25 nM or at 4 nM (Figure 5). The class given is biochemical.
Series [2] concerns the target T2, MMP-14 (Homo sapiens, UniProt P50281). Nature of the series: SensoLyte 520 Fluorimetric Assay Kit selectivity assay, MMP-14. The class given is biochemical. The settings on record: agents tested at 25 nM or at 4 nM (Figure 5).
Series [3] has as its target T3, MMP-9 (Homo sapiens, UniProt P14780). Nature of the series: SensoLyte 520 Fluorimetric Assay Kit selectivity assay, MMP-9. The settings on record: agents tested at 25 nM or at 4 nM (Figure 5). The class given is biochemical.
Series [4] concerns the target T4, MMP-1 (Homo sapiens, UniProt P03956).
T4 sequence (P03956 100-269 limits assumed): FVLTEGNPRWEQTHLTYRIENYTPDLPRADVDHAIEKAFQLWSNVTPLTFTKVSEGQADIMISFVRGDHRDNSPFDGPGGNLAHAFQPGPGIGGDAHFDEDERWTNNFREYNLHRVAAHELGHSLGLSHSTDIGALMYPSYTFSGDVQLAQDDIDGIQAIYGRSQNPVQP
Nature of the series: SensoLyte 520 Fluorimetric Assay Kit selectivity assay, MMP-1. The class given is biochemical. The settings on record: agents tested at 25 nM or at 4 nM (Figure 5).

Series [5] deals with T5, MMP-13 (Homo sapiens, UniProt P45452). Nature of the series: SensoLyte 520 Fluorimetric Assay Kit selectivity assay, MMP-13. The class given is biochemical. Conditions: agents tested at 25 nM or at 4 nM (Figure 5).
The target of series [6] is T6, hMMP-12 (Homo sapiens, UniProt P39900). Nature of the series: SensoLyte 520 MMP-12 Fluorimetric Assay Kit enzymatic inhibition assay. The class given is biochemical.
T6 sequence (P39900 106-263): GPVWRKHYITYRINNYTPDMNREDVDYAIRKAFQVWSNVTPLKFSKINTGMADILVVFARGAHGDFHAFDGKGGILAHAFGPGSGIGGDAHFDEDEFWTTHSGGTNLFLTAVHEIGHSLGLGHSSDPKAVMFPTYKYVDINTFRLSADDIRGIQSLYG
Series [7] relates to elastase-induced emphysema (lung tissue destruction). Put plainly: Murine model of elastase-induced emphysema, mean linear intercept. In kind it is in vivo, C57BL/6 mice. Conditions: PPE intranasal, i.p. treatment once daily for 7 days from day 2, read at day 21.
The format of series [8] is in vivo. Conditions: 30 mg/kg i.p., Balb-C mice; converted from ng/ml.
A short description of series [9]: Solubility in the dosing formulation. The settings on record: 10% DMSO, 40% PEG400, and 10% (2-hydroxypropyl)-Beta-cyclodextrin in PBS. In kind it is physicochemical.
The target in series [10] is T1, MMP-3. The settings on record: at 55 nM; cited from earlier work.
Series [11] concerns the target T6, hMMP-12. The settings on record: read-out: IC50 for hMMP-12 inhibition; dose response (Figure 2B); cited from earlier work.
For series [12], the target named is T4, MMP-1. The settings on record: even at 1 μM; cited from earlier work.
For series [13], the target named is T3, MMP-9. The settings on record: even at 1 μM; cited from earlier work.
The target in series [14] is T5, MMP-13. The settings on record: even at 1 μM; cited from earlier work.
Series [15] deals with T2, MMP-14. The settings on record: even at 1 μM; cited from earlier work.

T1 sequence (P08254 100-272 limits assumed): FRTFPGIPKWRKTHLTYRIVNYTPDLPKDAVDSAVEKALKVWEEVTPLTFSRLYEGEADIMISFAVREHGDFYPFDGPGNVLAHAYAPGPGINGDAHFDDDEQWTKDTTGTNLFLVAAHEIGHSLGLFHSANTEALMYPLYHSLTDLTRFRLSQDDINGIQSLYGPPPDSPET
T3 sequence (P14780 107-444 limits assumed): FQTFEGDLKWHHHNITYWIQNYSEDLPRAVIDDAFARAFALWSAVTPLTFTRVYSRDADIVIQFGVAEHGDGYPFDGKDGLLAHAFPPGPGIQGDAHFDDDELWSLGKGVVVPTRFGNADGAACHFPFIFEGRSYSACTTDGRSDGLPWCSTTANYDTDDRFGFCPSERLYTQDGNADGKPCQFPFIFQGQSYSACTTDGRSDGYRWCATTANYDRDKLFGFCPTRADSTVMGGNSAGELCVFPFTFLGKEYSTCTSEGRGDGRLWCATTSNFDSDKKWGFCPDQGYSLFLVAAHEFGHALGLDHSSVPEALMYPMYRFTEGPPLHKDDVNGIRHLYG

As for `COc1ccc(CCC[C@H](NC(=O)CN2CCOCC2)C(=O)N[C@H](CCc2ccc(OC)cc2)C(=O)N[C@H](Cc2ccc(C)cc2)C(=O)NO)cc1` [compound 26], the “inhibition of MMP-3” value at MMP-3 [1] is “appreciable inhibition”. The “inhibition of MMP-14” value against MMP-14 [2] is listed as “did not display significant inhibition”. For the same molecule, the “inhibition of MMP-9” value at MMP-9 [3] is listed as “did not display significant inhibition”. The “inhibition of MMP-1” value against MMP-1 [4] is reported as “did not display significant inhibition”. For the same molecule, the “inhibition of MMP-13” value on MMP-13 [5] was “did not display significant inhibition”. In addition, the “mode of hMMP-12 inhibition” value on hMMP-12 [6] is listed as “competitive inhibitors”. In series [7], the “emphysema-like pathology (MLI) compared to PPE + vehicle-treated mice” value is on record as “significant decrease”.

Regarding `COc1ccc(CC[C@@H](NC(=O)[C@H](CCCc2ccccc2)NC(=O)CN2CCOCC2)C(=O)N[C@H](Cc2ccc(C)cc2)C(=O)NO)cc1` [compound 25], on MMP-3 [1], the “inhibition of MMP-3” value is on record as “appreciable inhibition”. Besides, on MMP-14 [2], the “inhibition of MMP-14” value is “did not display significant inhibition”. The “peak plasma drug concentration” value in [8] is reported as ~ 580 nM. Also, the “inhibition of MMP-9” value at MMP-9 [3] is on record as “did not display significant inhibition”. At MMP-1 [4], the “inhibition of MMP-1” value is listed as “did not display significant inhibition”. Further, the “inhibition of MMP-13” value on MMP-13 [5] is listed as “did not display significant inhibition”. Further, the “mode of hMMP-12 inhibition” value on hMMP-12 [6] is “competitive inhibitors”. Further, the “emphysema-like pathology (MLI) compared to PPE + vehicle-treated mice” value in [7] is recorded as “significant decrease”. The solubility in formulation entry in series [9] is given as “soluble”.

For `CNC(=O)[C@H](Cc1c[nH]c2ccccc12)NC(=O)[C@@H](CC(=O)NO)CC(C)C` [GM6001, reference compound], at MMP-3 [1], the “inhibition of MMP-3” value was “appreciable inhibition”.

The IC50 is the point on the concentration scale where inhibition reaches its midpoint. `CC(=O)N[C@@H](COCc1ccccc1)C(=O)N[C@H](CCc1ccccc1)C(=O)N[C@H](Cc1ccccc1)C(=O)NO` [compound 1] (Ac-Ser(Bn)-[d(hPhe)]-[dF]-{NHOH}): on MMP-3 [10], the “inhibition of MMP-3” value is given as ~ 19%. For the same molecule, the IC50 on hMMP-12 [11] was ~30 nM and 29.7 nM. At MMP-1 [12], the “inhibition of MMP-1” value was “did not significantly inhibit”. Besides, the “inhibition of MMP-9” value at MMP-9 [13] is “did not significantly inhibit”. At MMP-13 [14], the “inhibition of MMP-13” value was “did not significantly inhibit”. Moreover, the “inhibition of MMP-14” value at MMP-14 [15] is on record as “did not significantly inhibit”.

For the molecule `COC(=O)Nc1ccc2oc3cc(S(=O)(=O)N[C@H](C(=O)O)C(C)C)ccc3c2c1` [MMP408, (S)-2-(8-(methoxycarbonylamino)dibenzo[b,d]furan-3-sulfonamido)-3-methylbutanoic acid, reference compound], the “emphysema-like pathology (MLI) compared to PPE + vehicle-treated mice” value in series [7] was “significant decrease”.
